Measurements as given in patent US8946203B2, “Benzodioxane inhibitors of leukotriene production” (Boehringer Ingelheim International GmbH, priority 2012, dated 2015).
Where two headings read alike, the source gives them in different places.

Legend:
[1] = target: T1, human LTA4 hydrolase (Homo sapiens, UniProt P09960); assay: LTA4H Enzyme assay (cleavage of Arg-AMC, fluorescence); assay type: biochemical
T1 sequence (P09960 1-611): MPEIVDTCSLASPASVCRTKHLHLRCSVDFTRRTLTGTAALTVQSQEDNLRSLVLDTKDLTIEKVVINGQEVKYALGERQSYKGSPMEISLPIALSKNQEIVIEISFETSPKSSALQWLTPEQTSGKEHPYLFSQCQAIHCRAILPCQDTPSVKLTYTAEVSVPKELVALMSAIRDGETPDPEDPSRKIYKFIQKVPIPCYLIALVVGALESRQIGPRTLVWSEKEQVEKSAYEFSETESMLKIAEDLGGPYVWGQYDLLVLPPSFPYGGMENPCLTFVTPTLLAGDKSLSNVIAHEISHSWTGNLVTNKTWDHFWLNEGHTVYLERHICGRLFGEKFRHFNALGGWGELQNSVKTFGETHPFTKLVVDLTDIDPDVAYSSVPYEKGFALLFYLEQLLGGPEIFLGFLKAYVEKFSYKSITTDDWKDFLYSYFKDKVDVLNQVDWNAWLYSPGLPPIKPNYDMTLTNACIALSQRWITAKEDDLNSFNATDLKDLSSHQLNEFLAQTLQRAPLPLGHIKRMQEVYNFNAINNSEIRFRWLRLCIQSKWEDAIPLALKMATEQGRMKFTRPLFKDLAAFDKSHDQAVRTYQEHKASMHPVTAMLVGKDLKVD
In short: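 Peptidase activity of human LTA4H (1 nM final) on Arg-AMC (50 μM final), with compound, 1 h at room temperature. Buffer: 50 mM Tris-HCl pH 7.5, 100 mM KCl, 0.5% BSA.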

[2] = tested on: synthesis of LTB4 in human whole blood; assay: human whole blood (HWB) assay, LTB4 production inhibition after calcimycin stimulation; assay type: cell-based; details: heparinized human whole blood, calcimycin 20 μM, plasma LTB4 by HTRF
Description: The compounds of the invention are additionally tested in a human whole blood (HWB) assay to determine their ability to inhibit the synthesis of LTB4 in a cellular system. Compounds are combined with heparinized human whole blood and incubated for 15 minutes at 37° C. Calcimycin (20 μM final, prepared in phosphate-buffered saline, pH 7.4) is then added and the mixture is incubated for another 30 minutes at 37° C. The samples are centrifuged for 5 min at low speed (1500×g) and the plasma layer is removed. Plasma LTB4 concentrations are then measured using an antibody-based homogenous time-resolved fluorescence method (CisBio, Bedford, Mass.). In general, the preferred potency range (IC50) of compounds in the HWB assay is between 10 nM to 10 μM, the more preferred potency range is 10 nM to 1 μM, and the most preferred potency range is 10 nM to 100 nM.

[3] = LTA4H Enzyme 1 nM, Arg-AMC substrate 50 μM, room temperature 1 h, fluorescence, read-out: IC50 values of LTA4H Enzyme assay

Row | IC50 [1, 3] [nM] | IC50 [2] [nM] | Structure (SMILES) | IC50 [1] [nM]
1 | 0.82 | 310 | O=C1NCCCC12CCN(Cc1ccc([C@H]3COc4ccccc4O3)cc1)CC2 [Example 116, 9-{4-[(2S)-2,3-dihydro-1,4-benzodioxin-2-yl]benzyl}-2,9-diazaspiro[5.5]undecan-1-one] | –
2 | 0.45 | 256 | CC(=O)N1CCCC12CCN(Cc1ccc([C@H]3COc4ccccc4O3)cc1)C2 (stereo partly drawn) [Example 118, 1-(7-{4-[(2S)-2,3-dihydro-1,4-benzodioxin-2-yl]benzyl}-1,7-diazaspiro[4.4]non-1-yl)ethanone] | –
3 | 0.37 | 159 | CN1CCC2(CCN(Cc3ccc([C@H]4COc5ccccc5O4)cc3)CC2)C1=O [Example 121, 8-{4-[(2S)-2,3-dihydro-1,4-benzodioxin-2-yl]benzyl}-2-methyl-2,8-diazaspiro[4.5]decan-1-one] | –
4 | 0.73 | 312 | NC(=O)CN1CCCC12CCN(Cc1ccc([C@H]3COc4ccccc4O3)cc1)C2 (stereo partly drawn) [Example 123, 2-(7-{4-[(2S)-2,3-dihydro-1,4-benzodioxin-2-yl]benzyl}-1,7-diazaspiro[4.4]non-1-yl)acetamide] | –
5 | 0.16 | 39 | O=C1NCCC12CCN(Cc1ccc([C@H]3COc4cccnc4O3)cc1)CC2 [Example 125, 8-[(S)-4-(2,3-Dihydro-[1,4]dioxino[2,3-b]pyridin-3-yl)-benzyl]-2,8-diaza-spiro[4.5]decan-1-one] | –
6 | 0.18 | 32 | c1cnc2c(c1)OC[C@H](c1ccc(CN3CCCC3)cc1)O2 [Example 126, (3S)-3-[4-(pyrrolidin-1-ylmethyl)phenyl]-2,3-dihydro[1,4]dioxino[2,3-b]pyridine] | –
7 | 0.47 | 95 | O=C(O)CCC1CCN(Cc2ccc([C@H]3COc4ccccc4O3)cc2)CC1 [Example 134, 3-(1-{4-[(2S)-2,3-dihydro-1,4-benzodioxin-2-yl]benzyl}piperidin-4-yl)propionic acid] | –
8 | 0.26 | 28 | CC1CCN(Cc2ccc([C@H]3COc4cccnc4O3)cc2)CC1 [Example 137, (3S)-3-{4-[(4-methylpiperidin-1-yl)methyl]phenyl}-2,3-dihydro[1,4]dioxino[2,3-b]pyridine] | –
9 | 0.18 | 76 | CN(CCc1ccccn1)Cc1ccc([C@H]2COc3cccnc3O2)cc1 [Example 138, N-{4-[(3S)-2,3-dihydro[1,4]dioxino[2,3-b]pyridin-3-yl]benzyl}-N-methyl-2-(pyridin-2-yl)ethanamine] | –
10 | 0.1 | 13 | c1cnc2c(c1)OC[C@H](c1ccc(CN3CCCCCC3)cc1)O2 [Example 139, (3S)-3-[4-(azepan-1-ylmethyl)phenyl]-2,3-dihydro[1,4]dioxino[2,3-b]pyridine] | –
11 | 0.38 | 33 | CCN(C)Cc1ccc([C@H]2COc3cccnc3O2)cc1 [Example 140, N-{4-[(3S)-2,3-dihydro[1,4]dioxino[2,3-b]pyridin-3-yl]benzyl}-N-methylethanamine] | –
12 | 0.26 | 33 | CCN(CC)Cc1ccc([C@H]2COc3cccnc3O2)cc1 [Example 141, N-{4-[(3S)-2,3-dihydro[1,4]dioxino[2,3-b]pyridin-3-yl]benzyl}-N-ethylethanamine] | –
13 | 0.17 | 24 | CN(Cc1ccc([C@H]2COc3cccnc3O2)cc1)C1CCCC1 [Example 142, N-{4-[(3S)-2,3-dihydro[1,4]dioxino[2,3-b]pyridin-3-yl]benzyl}-N-methylcyclopentanamine] | –
14 | 0.28 | 95 | FC1CCN(Cc2ccc([C@H]3COc4cccnc4O3)cc2)CC1 [Example 155, (3S)-3-{4-[(4-fluoropiperidin-1-yl)methyl]phenyl}-2,3-dihydro[1,4]dioxino[2,3-b]pyridine] | –
15 | 0.91 | 159 | c1cnc2c(c1)OC[C@H](c1ccc(CN3CCn4cnnc4C3)cc1)O2 [Example 156, (3S)-3-[4-(5,6-dihydro[1,2,4]triazolo[4,3-a]pyrazin-7(8H)-ylmethyl)phenyl]-2,3-dihydro[1,4]dioxino[2,3-b]pyridine] | –
16 | 0.13 | 28 | COC1CCCN(Cc2ccc([C@H]3COc4cccnc4O3)cc2)C1 (stereo partly drawn) [Example 158, (3S)-3-{4-[(3-methoxypiperidin-1-yl)methyl]phenyl}-2,3-dihydro[1,4]dioxino[2,3-b]pyridine] | –
17 | 0.18 | 28 | CC(=O)NC1CCN(Cc2ccc([C@H]3COc4cccnc4O3)cc2)CC1 [Example 160, N-(1-{4-[(3S)-2,3-dihydro[1,4]dioxino[2,3-b]pyridin-3-yl]benzyl}piperidin-4-yl)acetamide] | –
18 | 0.84 | 100 | NC(=O)N1CCN(Cc2ccc([C@H]3COc4cccnc4O3)cc2)CC1 [Example 164, 4-{4-[(3S)-2,3-dihydro[1,4]dioxino[2,3-b]pyridin-3-yl]benzyl}piperazine-1-carboxamide] | –
19 | 0.31 | 39 | COC1CCN(Cc2ccc([C@H]3COc4cccnc4O3)cc2)C1 (stereo partly drawn) [Example 168, (3S)-3-{4-[(3-methoxypyrrolidin-1-yl)methyl]phenyl}-2,3-dihydro[1,4]dioxino[2,3-b]pyridine] | –
20 | 0.73 | 73 | c1cnc2c(c1)OC[C@H](c1ccc(CNC3CCC3)cc1)O2 [Example 173, N-{4-[(3S)-2,3-dihydro[1,4]dioxino[2,3-b]pyridin-3-yl]benzyl}cyclobutanamine] | –
21 | 0.6 | 268 | CS(=O)(=O)N1CCC(NCc2ccc([C@H]3COc4ccccc4O3)cc2)CC1 [Example 174, N-{4-[(2S)-2,3-dihydro-1,4-benzodioxin-2-yl]benzyl}-1-(methylsulfonyl)piperidin-4-amine] | –
22 | 0.22 | 73 | NC(=O)NC1CCN(Cc2ccc([C@H]3COc4ccccc4O3)cc2)CC1 [Example 175, 1-(1-{4-[(2S)-2,3-dihydro-1,4-benzodioxin-2-yl]benzyl}piperidin-4-yl)urea] | –
23 | 0.35 | 160 | CC(=O)NC1CCN(Cc2ccc([C@H]3COc4ccccc4O3)cc2)CC1 [Example 178, N-(1-{4-[(2S)-2,3-dihydro-1,4-benzodioxin-2-yl]benzyl}piperidin-4-yl)acetamide] | –
24 | 0.48 | 151 | O=C(O)C[C@@H]1CCCN(Cc2ccc([C@H]3COc4ccccc4O3)cc2)C1 [Example 183, [(3S)-1-{4-[(2S)-2,3-dihydro-1,4-benzodioxin-2-yl]benzyl}piperidin-3-yl]acetic acid] | –
25 | 0.59 | 92 | CC(=O)N1CCN(Cc2ccc([C@H]3COc4cccnc4O3)cc2)CC1 [Example 185, 1-(4-{4-[(3S)-2,3-dihydro[1,4]dioxin[2,3-b]pyridin-3-yl]benzyl}piperazin-1-yl)ethanone] | –
26 | 0.24 | 36 | OC1CCN(Cc2ccc([C@H]3COc4cccnc4O3)cc2)CC1 [Example 186, 1-{4-[(3S)-2,3-dihydro[1,4]dioxino[2,3-b]pyridin-3-yl]benzyl}piperidin-4-ol] | –
27 | 0.07 | 177 | NC(=O)NC1CCN(Cc2ccc([C@H]3COc4cccnc4O3)cc2)CC1 [Example 187, 1-(1-{4-[(3S)-2,3-dihydro[1,4]dioxino[2,3-b]pyridin-3-yl]benzyl}piperidin-4-yl)urea] | –
28 | 0.09 | 26 | CS(=O)(=O)NC1CCN(Cc2ccc([C@H]3COc4cccnc4O3)cc2)CC1 [Example 190, N-(1-{4-[(3S)-2,3-dihydro[1,4]dioxino[2,3-b]pyridin-3-yl]benzyl}piperidin-4-yl)methanesulfonamide] | –
29 | 0.12 | 83 | O=C(O)C1CCN(Cc2ccc([C@H]3COc4ccccc4O3)cc2)CC1 [Example 200, (S)-1-[4-(2,3-dihydro-benzo[1,4]dioxin-2-yl)-benzyl]-piperidine-4-carboxylic acid] | –
30 | 0.15 | 95 | c1cnc2c(c1)OC[C@H](c1ccc(CN3CCOCC3)cc1)O2 [Example 204, (S)-3-(4-Morpholin-4-ylmethyl-phenyl)-2,3-dihydro-[1,4]dioxino[2,3-b]pyridine] | –

Row | Structure (SMILES) | IC50 [1, 3] [nM] | IC50 [2] [nM] | IC50 [1] [nM]
31 | c1cnc2c(c1)OC[C@H](c1ccc(CN3[C@H]4CC[C@@H]3CC4)cc1)O2 [Example 145, (3S)-3-{4-[(1s,4s)-7-azabicyclo[2.2.1]hept-7-ylmethyl]phenyl}-2,3-dihydro[1,4]dioxino[2,3-b]pyridine] | – | 28 | 0.09
